Results reported in patent US20040106216A1, “Method of measuring drug-metabolizing enzyme activity, method of evaluating inhibition of drug-metabolizing enzyme activity, and composition for these methods” (Toyo Boseki Kabushiki Kaisha, priority 2002, published 2004).
Positions count from the first letter of the chain named.

Experiments:
[1] = system: Pseudomonas-derived 17β-hydroxysteroid dehydrogenase; assay: Inhibition of 17β-hydroxysteroid dehydrogenase, estrone substrate, estradiol enzyme immunoassay; type: biochemical; conditions: 0-20 μM final concentration, FIG. 8
[2] = target: human cytochrome P450 CYP2C9 (359Leu) (Homo sapiens, UniProt P11712, I359L); conditions: 30 μM dibenzylfluorescein; 0-1.2 μM final concentration; FIG. 20
Method: (§1) Purified anti-fluorescein antibodies obtained using as the antigen a protein cross-linked using the X position of fluorescein were diluted with 50 mM carbonic acid buffer (pH 9.6) to a concentration of 1 μg/ml (antibody adsorption liquid), and 100 μL per well was poured into Corning Costar microtiter plates (polystyrene 96-well type). The surfaces were then sealed, and the plates left overnight at 4° C. The following day the antibody adsorption liquid was removed, and each well washed 3 times with 200 μL of 10 mM phosphoric acid buffer (pH 7.2, containing 150 mM NaCl). After washing, using 10 mM phosphoric acid buffer (pH 7.2, containing 150 mM NaCl: phosphoric acid buffer 1) as the base, each well was filled with 200 μL of a blocking solution containing 0.2% casein and 10% sucrose. After being filled with the blocking liquid the plates were left overnight at 4° C., and the following day the blocking liquid was removed and vacuum drying applied for 16 hours. The vacuum-dried plates were sealed in storage bags under reduced pressure, and stored at 4° C. prior to the following measurements.
(§2) A system expressing human cytochrome P450 CYP2C9 was constructed according to the methods of Goldstein et al (Goldstein J. A. et al, Biochemistry Vol. 33 pp 1743-1752 (1994)). A single nucleotide mutation (A→C) replacing isoleucine at 359 position with leucine was then introduced by ordinary methods. Two types of enzyme preparations, human cytochrome P450 CYP2C9 (359Ile) and (359Leu), were prepared by methods described in the literature and used in the following experiment.
(§3) The two human cytochrome P450 CYP2C9 preparations were diluted with 100 mM phosphoric acid buffer (pH 7.2, containing 0.1% BSA: phosphoric acid buffer 2), and concentrations sequences prepared. […]

[3] = target: human cytochrome P450 CYP2C9 (359Ile) (Homo sapiens, UniProt P11712)
Method: as §1, §2, §3

[4] = target: T1, pig cytochrome P450 CYP19 (133Ile) (Sus scrofa, UniProt P79430); assay: Inhibition of pig cytochrome P450 CYP19 (133Ile), testosterone substrate, estradiol enzyme immunoassay; type: biochemical
T1 construct: made in house
T1 sequence (P79430 1-503): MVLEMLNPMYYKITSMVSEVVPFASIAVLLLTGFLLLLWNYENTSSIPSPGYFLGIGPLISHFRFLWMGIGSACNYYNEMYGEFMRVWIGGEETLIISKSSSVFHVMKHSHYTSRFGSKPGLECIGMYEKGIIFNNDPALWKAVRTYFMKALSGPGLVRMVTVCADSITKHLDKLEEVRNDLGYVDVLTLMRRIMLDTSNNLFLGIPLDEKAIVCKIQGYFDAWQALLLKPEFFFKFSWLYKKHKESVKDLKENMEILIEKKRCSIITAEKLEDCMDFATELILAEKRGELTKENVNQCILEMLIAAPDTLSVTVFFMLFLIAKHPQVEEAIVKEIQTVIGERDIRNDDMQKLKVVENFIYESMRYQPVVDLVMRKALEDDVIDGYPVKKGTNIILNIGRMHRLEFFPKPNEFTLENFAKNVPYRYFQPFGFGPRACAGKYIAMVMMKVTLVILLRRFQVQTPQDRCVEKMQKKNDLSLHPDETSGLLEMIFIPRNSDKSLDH
Method: as §1, with “Purified anti-estradiol” for “Purified anti-fluorescein”, “the 3rd” for “the X”, “of estradiol” for “of fluorescein”, “diluted in” for “diluted with”, “10% saccharose.” for “10% sucrose.”
(§4) A placental system expressing pig cytochrome P450 CYP19 was prepared according to the methods described in Mol. Endocrinol. Vol. 16, pp 1456-1468 (2002), and a mutation introduced replacing isoleucine 133 with methionine or alanine according to ordinary methods. […]

[5] = target: T2, human cytochrome P450 CYP19 (Homo sapiens, UniProt P11511); assay: Inhibition of human cytochrome P450 CYP19 (aromatase), testosterone substrate, estradiol enzyme immunoassay; type: biochemical; conditions: 62.5 μM testosterone, 20 minutes at 37° C.; α-naphthoflavone 0-3.2 μM, aminoglutethimide 0-9 μM final concentration; FIG. 6, 7
T2 construct: purchased BD Science (Gentest)
T2 sequence (P11511 1-503): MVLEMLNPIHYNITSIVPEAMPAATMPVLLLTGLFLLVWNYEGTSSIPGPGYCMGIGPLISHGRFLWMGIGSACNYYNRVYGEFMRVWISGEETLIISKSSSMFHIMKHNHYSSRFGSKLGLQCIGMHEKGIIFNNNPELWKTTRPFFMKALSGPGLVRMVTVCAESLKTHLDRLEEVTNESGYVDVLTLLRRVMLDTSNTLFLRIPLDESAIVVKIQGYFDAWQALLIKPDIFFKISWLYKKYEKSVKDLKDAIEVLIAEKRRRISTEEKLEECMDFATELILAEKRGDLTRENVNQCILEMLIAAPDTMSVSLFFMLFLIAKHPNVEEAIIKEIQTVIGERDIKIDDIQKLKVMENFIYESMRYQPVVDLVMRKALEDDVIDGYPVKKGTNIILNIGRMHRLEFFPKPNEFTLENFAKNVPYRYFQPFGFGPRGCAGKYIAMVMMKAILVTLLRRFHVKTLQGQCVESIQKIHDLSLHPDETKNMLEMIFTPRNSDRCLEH
Method: as §1, with “The” for “Purified anti-fluorescein antibodies obtained using as the antigen a protein cross-linked using the X position of fluorescein were diluted with 50 mM carbonic acid buffer (pH 9.6) to a concentration of 1 μg/ml (antibody adsorption liquid), and 100 μL per well was poured into Corning Costar microtiter plates (polystyrene 96-well type). The”

[6] = target: T3, pig cytochrome P450 CYP19 (133Met) (Sus scrofa, UniProt P79430, I133M); assay: Inhibition of pig cytochrome P450 CYP19 (133Met), testosterone substrate, estradiol enzyme immunoassay; type: biochemical; conditions: 62.5 μM testosterone; 0-3.2 μM final concentration; FIG. 16
T3 construct: made in house
T3 sequence (P79430 1-503 I133M): T1 sequence (P79430 1-503) with I133M
Method: as §1, with “Purified anti-estradiol” for “Purified anti-fluorescein”, “the 3rd” for “the X”, “of estradiol” for “of fluorescein”, “diluted in” for “diluted with”, “10% saccharose.” for “10% sucrose.”
as §4

human cytochrome P450 CYP2C9 (359Ile), sequence (P11712 whole entry): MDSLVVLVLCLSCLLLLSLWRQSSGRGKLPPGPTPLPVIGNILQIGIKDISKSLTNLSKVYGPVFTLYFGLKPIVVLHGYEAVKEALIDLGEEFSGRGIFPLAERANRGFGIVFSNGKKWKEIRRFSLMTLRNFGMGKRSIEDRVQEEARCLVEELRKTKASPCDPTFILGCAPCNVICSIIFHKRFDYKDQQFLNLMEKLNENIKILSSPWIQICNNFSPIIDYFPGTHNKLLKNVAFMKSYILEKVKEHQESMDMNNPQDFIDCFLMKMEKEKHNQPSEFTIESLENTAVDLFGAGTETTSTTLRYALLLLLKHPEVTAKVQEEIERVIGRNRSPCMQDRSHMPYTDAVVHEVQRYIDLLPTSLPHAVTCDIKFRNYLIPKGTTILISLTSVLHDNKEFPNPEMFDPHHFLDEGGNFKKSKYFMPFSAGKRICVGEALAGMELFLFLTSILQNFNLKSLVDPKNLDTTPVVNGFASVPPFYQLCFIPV
human cytochrome P450 CYP2C9 (359Leu), sequence (P11712 whole entry I359L): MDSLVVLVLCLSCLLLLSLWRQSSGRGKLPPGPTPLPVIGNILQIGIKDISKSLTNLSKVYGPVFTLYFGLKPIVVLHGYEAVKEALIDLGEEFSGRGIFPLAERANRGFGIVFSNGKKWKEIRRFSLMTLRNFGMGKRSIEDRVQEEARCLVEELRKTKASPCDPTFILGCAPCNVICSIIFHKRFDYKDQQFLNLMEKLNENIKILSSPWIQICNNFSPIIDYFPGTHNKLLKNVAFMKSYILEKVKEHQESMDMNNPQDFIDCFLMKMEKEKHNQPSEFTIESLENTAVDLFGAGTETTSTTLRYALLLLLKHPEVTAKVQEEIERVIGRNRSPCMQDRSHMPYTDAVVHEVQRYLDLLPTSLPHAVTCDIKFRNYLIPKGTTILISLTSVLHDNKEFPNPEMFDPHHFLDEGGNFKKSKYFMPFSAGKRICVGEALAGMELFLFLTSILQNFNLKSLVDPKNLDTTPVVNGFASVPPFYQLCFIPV

O=c1c(-c2ccc(O)cc2)coc2cc(O)cc(O)c12 [genistein]
inhibition of 17β-hydroxysteroid dehydrogenase (relationship between solution concentration and absorbance at 450 nm) [1]: the stronger the inhibition of 17β-hydroxysteroid dehydrogenase

Nc1ccc(S(=O)(=O)Nc2ccnn2-c2ccccc2)cc1 [sulfaphenazole]
inhibition of human cytochrome P450 CYP2C9 (359Leu) (concentration vs absorbance at 450 nm) [2]: the greater the inhibition of the two types of human cytochrome P450 CYP2C9 | inhibition of human cytochrome P450 CYP2C9 (359Ile) (concentration vs absorbance at 450 nm) ([3]; 30 μM dibenzylfluorescein, 0-1.2 μM final concentration, FIG. 19): the greater the inhibition of the two types of human cytochrome P450 CYP2C9 | difference between inhibition-dose curves of the two enzyme preparations ([3]; human CYP2C9 (359Ile) versus (359Leu), FIGS. 19 and 20): obvious differences between the sulfaphenazole inhibition-dose curves

O=c1cc(-c2ccccc2)oc2c1ccc1ccccc12 [α-naphthoflavone]
inhibition of pig cytochrome P450 CYP19 (133Ile) (concentration vs absorbance at 450 nm) ([4]; 62.5 μM testosterone, 0-3.2 μM final concentration, FIG. 15): the greater the inhibition of pig cytochrome P450 CYP19 | difference in degree of inhibition between preparation (133Ile) and preparation (133Met) ([4]; pig CYP19 (133Ile) versus (133Met), FIGS. 15 and 16): the degree of inhibition differed greatly | inhibition of cytochrome P450 CYP19 (relationship between solution concentration and absorbance at 450 nm) [5]: the greater the inhibition of cytochrome P450 CYP19 | inhibition of pig cytochrome P450 CYP19 (133Met) (concentration vs absorbance at 450 nm) [6]: the greater the inhibition of pig cytochrome P450 CYP19
